The record followed here is ChEMBL document CHEMBL1201862, “PubChem BioAssay data set” (2004).

pIC50: −log10 of the molar value. Where “and” joins values, the source holds several entries; their conditions need not be identical. Equal values may be shown once. Calls of active or inactive are those of the source. Where only a bound is given, the exact number is not on record here.

Assay [1] is described as follows: Luminescence Cell-Based/Microorganism Confirmation at Dose of Inhibitors of Trypanosoma cruzi Infection. [Related pubchem assays: 1885, 1968 ]. Type of assay: functional.
Assay [2] can be described thus: inhibitors of intracellular T. cruzi replication, confirmation, NIH3T3 host cells, beta-gal luminescence (AID 2044).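 Note: intracellular parasites grown in NIH/3T3 mouse fibroblasts as host cells; luminescent beta-galactosidase reporter signal from transgenic T. cruzi replicating inside host cells; inhibitors lower the luminescence signal.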 Type of assay: functional, cell-based.
A short description of assay [3]: Luminescence Cell-Based Secondary HTS screen to identify cytotoxic compounds of NIH3T3 cells. [Related pubchem assays: 1885, 1968 ]. In kind it is functional.
A short description of assay [4]: cytotoxicity toward NIH3T3 fibroblasts, dose response, counter-screen, cell-based, ATP luminescence, mouse fibroblasts (AID 2010).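 Note: cells exposed to compound for about 90 hours before reading.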 In kind it is functional.
Assay [5] is described as follows: cytotoxicity in NIH/3T3 mouse fibroblasts, dose response, cytotoxicity control, cell-based, mouse embryonic fibroblasts, dry powder, set 2 (AID 493247). Particulars: Fibroblast. In kind it is functional.
For the next assay, the system named is Trypanosoma cruzi. Description: growth inhibition of intracellular Trypanosoma cruzi, dose response, cell-based, plate reader, dry powder, set 3 (AID 493197). Type of assay: functional.
Assay [6] is described as follows: inhibitors of Trypanosoma cruzi host-cell infection, confirmation, beta-gal luminescence, NIH3T3 host cells (AID 2630). In kind it is functional, cell-based. Particulars: Mus musculus.
The nature of assay [7]: T. cruzi growth inhibition in host cells, dose response, cell-based, plate reader, dry powder, set 2 (AID 652275). In kind it is functional.
Assay [8] is described as follows: T. cruzi intracellular amastigote growth inhibition, dose response, imaging, CA-I/72 strain, bovine embryo skeletal muscle, dry powder (AID 651885). Type of assay: functional, cell-based.
Assay [9] deals with T1, G-protein coupled receptor 55 (Homo sapiens, UniProt Q9Y2T6). Description: GPR55 antagonists blocking LPI-driven arrestin recruitment, primary screen, imaging, U2OS, beta-arrestin-GFP, LPI agonist (AID 2013).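 Note: antagonist potency measured as reduced agonist-driven arrestin aggregation.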 Type of assay: functional.
Assay [10] deals with T2, Delta-type opioid receptor (Homo sapiens, UniProt P41143). Description: HTS Image-Based Screen for Antagonists of the DOR Receptor. [Related pubchem assays (depositor defined):AID1777, AID1785, AID1786, AID2133]. In kind it is functional.
Assay [11] concerns the target T3, Mu-type opioid receptor (Homo sapiens, UniProt P35372). Nature of the assay: HTS Image-Based Screen for Agonists of the MOR Receptor. [Related pubchem assays (depositor defined):AID1777, AID1785, AID1786, AID2133]. Type of assay: functional.
In assay [12] the target is T2, Delta-type opioid receptor. Description: HTS Image-Based Screen for Agonists of the DOR Receptor. [Related pubchem assays (depositor defined):AID1777, AID1786, AID2133]. Type of assay: functional.
The target of assay [13] is T4, Kappa-type opioid receptor (Homo sapiens, UniProt P41145). Type of assay: functional.
The next assay deals with Beta-galactosidase (Escherichia coli, UniProt Q8VNN2). Type of assay: functional.
Assay [14] deals with T4, Kappa-type opioid receptor. Type of assay: functional. This is another data set of the same source.
The target of assay [15] is T3, Mu-type opioid receptor. Nature of the assay: MOR agonists by imaging, SAR follow-up, image-based (AID 2352). Type of assay: functional.
For assay [16], the target named is T3, Mu-type opioid receptor. Description: SAR Analysis of Antagonists of the MOR Receptor using an Image-Based Assay - Set 3. [Related pubchem assays (depositor defined):AID1777, AID1785, AID1786, AID1966, AID2133, AID2136, AID2284, AID2285, AID2420]. In kind it is functional.
Assay [17] concerns the target T2, Delta-type opioid receptor. Nature of the assay: DOR agonists, SAR follow-up, image-based (AID 2370). In kind it is functional.
In assay [18] the target is T2, Delta-type opioid receptor. Description: SAR Analysis of Antagonists of the DOR Receptor using an Image-Based Assay - Set 3. [Related pubchem assays (depositor defined):AID1777, AID1785]. Type of assay: functional.
Assay [19] addresses T4, Kappa-type opioid receptor. Description: SAR analysis of small molecule antagonists of the kappa opioid receptor via a luminescent beta-arrestin assay - Set 3. [Related pubchem assays (depositor defined):AID1777, AID1778, AID1785, AID1786, AID1966, AID2133, AID2136, AID2285, AID2495]. In kind it is functional.
The target of assay [20] is T4, Kappa-type opioid receptor. Description: SAR analysis of Antagonists of the Kappa Opioid Receptor (KOR) using an Image-Based Assay - Set 3. [Related pubchem assays (depositor defined):AID1777, AID1785]. Type of assay: functional.
In assay [21] the target is T4, Kappa-type opioid receptor. Description: KOR antagonists by imaging, SAR follow-up, image-based (AID 2348). In kind it is functional.
The target of assay [22] is T4, Kappa-type opioid receptor. Nature of the assay: SAR analysis of Antagonists of the Kappa Opioid Receptor (KOR) using an Image-Based Assay - Set 4. [Related pubchem assays (depositor defined):AID1777, AID1785]. Type of assay: functional.
The target in assay [23] is T3, Mu-type opioid receptor. Description: MOR antagonists, SAR follow-up, image-based (AID 2420).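 Note: compounds added before stimulation of receptor with agonist DAMGO.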 Type of assay: functional.
The target in assay [24] is T4, Kappa-type opioid receptor. Description: KOR agonist analogs, imaging readout, SAR follow-up, image-based (AID 2359). Type of assay: functional.
Assay [25] deals with T2, Delta-type opioid receptor. Description: DOR antagonists, SAR follow-up, image-based (AID 2357). Type of assay: functional.
Assay [26] concerns the target T4, Kappa-type opioid receptor. Nature of the assay: kappa opioid receptor blockers, cell-based, luminescence, beta-arrestin, SAR follow-up (AID 2285). Type of assay: functional.
For assay [27], the target named is T1, G-protein coupled receptor 55. Description: GPR55 agonists via beta-arrestin recruitment, primary screen, imaging, U2OS cells, beta-arrestin-GFP redistribution (AID 1961). Type of assay: functional.

T2 sequence (P41143 whole entry): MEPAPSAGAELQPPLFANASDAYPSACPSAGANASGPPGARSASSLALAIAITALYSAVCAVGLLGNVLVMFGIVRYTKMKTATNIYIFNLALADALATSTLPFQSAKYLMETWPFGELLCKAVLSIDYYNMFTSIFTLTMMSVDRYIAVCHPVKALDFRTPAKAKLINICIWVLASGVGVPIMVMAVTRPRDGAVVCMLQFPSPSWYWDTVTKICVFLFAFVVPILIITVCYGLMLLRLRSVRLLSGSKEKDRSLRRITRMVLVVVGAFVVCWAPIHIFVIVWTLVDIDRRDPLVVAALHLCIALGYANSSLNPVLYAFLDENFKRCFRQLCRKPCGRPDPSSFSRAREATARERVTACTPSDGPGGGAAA
T4 sequence (P41145 whole entry): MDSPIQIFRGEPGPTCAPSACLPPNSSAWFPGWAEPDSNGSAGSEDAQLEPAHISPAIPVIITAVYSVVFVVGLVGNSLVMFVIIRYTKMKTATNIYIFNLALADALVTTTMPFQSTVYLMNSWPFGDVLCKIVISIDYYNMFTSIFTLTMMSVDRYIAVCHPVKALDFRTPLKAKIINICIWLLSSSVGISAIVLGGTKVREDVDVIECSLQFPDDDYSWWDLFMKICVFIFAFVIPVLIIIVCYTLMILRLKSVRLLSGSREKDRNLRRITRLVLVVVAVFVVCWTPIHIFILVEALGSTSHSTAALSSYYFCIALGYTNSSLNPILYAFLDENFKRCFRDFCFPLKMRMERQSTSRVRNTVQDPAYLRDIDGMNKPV
T3 sequence (P35372 whole entry): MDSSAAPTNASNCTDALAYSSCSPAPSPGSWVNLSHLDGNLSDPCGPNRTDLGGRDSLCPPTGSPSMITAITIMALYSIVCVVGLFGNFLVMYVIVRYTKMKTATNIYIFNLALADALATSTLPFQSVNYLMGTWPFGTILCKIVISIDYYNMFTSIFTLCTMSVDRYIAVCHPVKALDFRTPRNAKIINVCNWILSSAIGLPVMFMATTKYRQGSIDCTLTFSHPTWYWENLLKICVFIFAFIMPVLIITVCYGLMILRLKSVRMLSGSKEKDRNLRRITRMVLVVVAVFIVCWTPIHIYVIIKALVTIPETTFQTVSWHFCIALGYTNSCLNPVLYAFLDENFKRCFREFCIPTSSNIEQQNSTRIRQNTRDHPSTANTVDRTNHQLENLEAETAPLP
T1 sequence (Q9Y2T6 whole entry): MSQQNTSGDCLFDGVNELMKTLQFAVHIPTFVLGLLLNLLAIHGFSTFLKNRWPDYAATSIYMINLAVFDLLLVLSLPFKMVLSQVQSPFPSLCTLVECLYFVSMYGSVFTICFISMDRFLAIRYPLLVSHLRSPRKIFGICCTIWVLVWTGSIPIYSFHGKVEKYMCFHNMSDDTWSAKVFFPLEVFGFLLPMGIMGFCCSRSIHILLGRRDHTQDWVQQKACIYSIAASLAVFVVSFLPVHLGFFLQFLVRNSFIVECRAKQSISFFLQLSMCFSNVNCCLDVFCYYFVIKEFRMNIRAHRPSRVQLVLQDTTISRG
Sequence of Beta-galactosidase (Q8VNN2 whole entry): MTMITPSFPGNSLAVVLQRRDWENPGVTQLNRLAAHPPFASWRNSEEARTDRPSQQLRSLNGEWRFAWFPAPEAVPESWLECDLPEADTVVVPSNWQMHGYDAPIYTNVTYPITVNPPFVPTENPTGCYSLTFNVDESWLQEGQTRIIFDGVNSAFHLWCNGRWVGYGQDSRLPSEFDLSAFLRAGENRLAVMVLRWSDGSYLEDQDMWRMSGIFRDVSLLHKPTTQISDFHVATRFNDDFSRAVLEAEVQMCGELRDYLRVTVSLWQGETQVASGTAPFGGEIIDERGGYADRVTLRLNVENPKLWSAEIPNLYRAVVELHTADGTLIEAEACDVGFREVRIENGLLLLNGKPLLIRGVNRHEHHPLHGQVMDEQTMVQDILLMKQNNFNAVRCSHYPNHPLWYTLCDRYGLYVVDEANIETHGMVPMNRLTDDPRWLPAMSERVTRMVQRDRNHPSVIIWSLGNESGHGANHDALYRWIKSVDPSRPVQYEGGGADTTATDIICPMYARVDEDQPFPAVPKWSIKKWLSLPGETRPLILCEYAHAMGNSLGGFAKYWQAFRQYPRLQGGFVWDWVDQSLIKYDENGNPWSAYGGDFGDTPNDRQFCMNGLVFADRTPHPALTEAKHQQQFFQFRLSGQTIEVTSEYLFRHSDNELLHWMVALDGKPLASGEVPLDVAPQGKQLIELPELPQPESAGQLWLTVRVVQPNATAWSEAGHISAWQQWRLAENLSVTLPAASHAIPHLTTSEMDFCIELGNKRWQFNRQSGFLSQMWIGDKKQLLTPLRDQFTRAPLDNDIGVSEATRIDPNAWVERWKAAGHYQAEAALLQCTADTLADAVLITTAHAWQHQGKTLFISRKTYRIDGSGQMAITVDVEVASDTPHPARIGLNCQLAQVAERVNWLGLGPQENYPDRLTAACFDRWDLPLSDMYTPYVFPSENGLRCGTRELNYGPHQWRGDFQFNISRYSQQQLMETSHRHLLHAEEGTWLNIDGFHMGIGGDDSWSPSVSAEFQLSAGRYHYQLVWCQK

As for `COc1ccc(CCN(C)C(=O)C2CCCN(Cc3ccc(OC)c(OC)c3)C2)cc1OC` (centres undefined), the 50% effective concentration (EC50) in assay [1] was 0.192 µM (active); in [2] it was < 0.1 µM (active); in [3], > 195 µM (not active); in [4], > 60 µM (not active); in assay [6], 0.192 µM (active). Further, the AC50 in [5] was 80.4 µM (active); in the assay on Trypanosoma cruzi, 0.26 µM (active); in assay [7], 0.252 µM (active). The IC50 in [8] was > 20 µM (inactive).

Consider `C=CCN1C(=O)/C(=C/Nc2ccc(Cc3ccncc3)cc2)C(=O)NC1=S`, for which, in assay [9], the IC50 is 0.543 µM (active).

In the case of `COc1ccc(N2CCN(CCCNC(=O)Cn3c(=O)c4cccn4c4cccnc43)CC2)cc1`, the IC50 in assay [10] was > 32 µM (inactive); in assay [13], 2.17 µM (active); at Mu-type opioid receptor [16], > 32 µM (inactive); in assay [18], > 32 µM (inactive); in assay [19], 1.07 µM (active) and 3.05 µM (active); in [20], 243 nM (active) and 670 nM (active). The half-inhibitory concentration (IC50) in [21] was 4.14 µM (active); in assay [22], 0.205 µM (active); on Mu-type opioid receptor [23] it was > 32 µM (inactive); in [25], > 32 µM (inactive); in assay [26], 1.67 µM (active). For the same molecule, the EC50 on Mu-type opioid receptor [11] was > 32 µM (inactive); in [12], > 32 µM (inactive); at Beta-galactosidase, > 31.5 µM (inactive); on Mu-type opioid receptor [15] it was > 32 µM (inactive); in assay [17], > 32 µM (inactive); in assay [24] it was > 32 µM (inactive). The molecule also gave a negative logarithm of the IC50 (pIC50) in assay [14] of 5.88.

In the case of `CN1CCN(c2nc(Nc3ccccc3)nc(N)c2[N+](=O)[O-])CC1`, the EC50 in assay [27] is 10.7 µM (inactive).
